Measurements: patent US20070275984A1, “Novel Thieno-Pyridine and Thieno-Pyrimidine Derivatives and Their Use as Positive Allosteric Modulators of Mglur2-Receptors” (JANSSEN PHARMACEUTICA N.V., priority 2004, published 2007)

melting point | SMILES
141 °C | CCc1cc2c(NC(C)c3ccccc3)ncnc2s1 (stereo not drawn)
111 °C | Cc1nc(NCCc2ccccc2)c2ccsc2n1 [Compound 1, 2-methyl-N-phenethylthieno[2,3-d]pyrimidin-4-amine]
89 °C | CCc1nc(NCCc2ccccc2)c2ccsc2n1 [Compound 2, 2-ethyl-N-phenethylthieno[2,3-d]pyrimidin-4-amine]
105 °C | Cc1nc(N2CCc3ccccc3C2)c2cc(C)sc2n1 [Compound 4, 2-(2,6-dimethylthieno[2,3-d]pyrimidin-4-yl)-1,2,3,4-tetrahydroisoquinoline]
97 °C | COc1cccc(CNc2nc(C)nc3sc(C)cc23)c1 [Compound 6, N-(3-methoxybenzyl)-2,6-dimethylthieno[2,3-d]pyrimidin-4-amine]
108.4 °C | CCc1nc(NCc2cccc(OC)c2)c2cc(C)sc2n1 [Compound 7, N-(3-methoxybenzyl)-2-ethyl-6-methylthieno[2,3-d]pyrimidin-4-amine]
127.5 °C | COc1ccc(CNc2nc(C)nc3sc(C)cc23)cc1 [Compound 8, N-(4-methoxybenzyl)-2,6-dimethylthieno[2,3-d]pyrimidin-4-amine]
142 °C | COc1ccc(CNc2nc(C)nc3sc(C)cc23)cc1OC [Compound 9, N-(3,4-dimethoxybenzyl)-2,6-dimethylthieno[2,3-d]pyrimidin-4-amine]
136.5 °C | Cc1nc(NCc2cccc(Cl)c2)c2cc(C)sc2n1 [Compound 10, N-(3-chlorobenzyl)-2,6-dimethylthieno[2,3-d]pyrimidin-4-amine]
159 °C | Cc1nc(NCC(=O)c2ccccc2)c2cc(C)sc2n1 [Compound 12, 2-(2,6-dimethylthieno[2,3-d]pyrimidin-4-ylamino)-1-phenylethanone]
106 °C | Cc1nc(NCCc2ccccc2)c2cc(C)sc2n1 [Compound 13, 2,6-dimethyl-N-phenethylthieno[2,3-d]pyrimidin-4-amine]
119 °C | Cc1cc2c(NCCc3ccccc3)nc(Cl)nc2s1 [Compound 14, 2-chloro-6-methyl-N-phenethylthieno[2,3-d]pyrimidin-4-amine]
142 °C | Cc1cc2c(NCCc3ccccc3)nc(N(C)C)nc2s1 [Compound 16, N2,N2,6-trimethyl-N4-phenethylthieno[2,3-d]pyrimidine-2,4-diamine]
115 °C | Cc1ccc(CCNc2nc(C)nc3sc(C)cc23)cc1 [Compound 19, N-(4-methylphenethyl)-2,6-dimethylthieno[2,3-d]pyrimidin-4-amine]
62 °C | CCc1ccc(CCNc2nc(C)nc3sc(C)cc23)cc1 [Compound 20, N-(4-ethylphenethyl)-2,6-dimethylthieno[2,3-d]pyrimidin-4-amine]
98.2 °C | Cc1nc(NCCc2cccc(C(F)(F)F)c2)c2cc(C)sc2n1 [Compound 21, N-(3-(trifluoromethyl)phenethyl)-2,6-dimethylthieno[2,3-d]pyrimidin-4-amine]
162.5 °C | Cc1nc(NCCc2cccc(O)c2)c2cc(C)sc2n1 [Compound 22, N-(3-hydroxyphenethyl)-2,6-dimethylthieno[2,3-d]pyrimidin-4-amine]
166 °C | Cc1nc(NCCc2ccc(O)cc2)c2cc(C)sc2n1 [Compound 23, 4-(2-(2,6-dimethylthieno[2,3-d]pyrimidin-4-ylamino)ethyl)phenol]
134 °C | COc1ccccc1CCNc1nc(C)nc2sc(C)cc12 [Compound 24, N-(2-methoxyphenethyl)-2,6-dimethylthieno[2,3-d]pyrimidin-4-amine]
139 °C | COc1cccc(CCNc2nc(C)nc3sc(C)cc23)c1 [Compound 25, N-(3-methoxyphenethyl)-2,6-dimethylthieno[2,3-d]pyrimidin-4-amine]
83.5 °C | CCc1nc(NCCc2cccc(OC)c2)c2cc(C)sc2n1 [Compound 26, N-(3-methoxyphenethyl)-2-ethyl-6-methylthieno[2,3-d]pyrimidin-4-amine]
199 °C | COc1ccc(CCNc2ncnc3sc(C)cc23)cc1 [Compound 27, N-(4-methoxyphenethyl)-6-methylthieno[2,3-d]pyrimidin-4-amine]
82 °C | CCc1nc(NCCc2ccc(OC)cc2)c2cc(C)sc2n1 [Compound 29, N-(4-methoxyphenethyl)-2-ethyl-6-methylthieno[2,3-d]pyrimidin-4-amine]
101 to 103 °C | CCOc1ccc(CCNc2nc(C)nc3sc(C)cc23)cc1 [Compound 30, N-(4-ethoxyphenethyl)-2,6-dimethylthieno[2,3-d]pyrimidin-4-amine]
135 °C | COc1cc(CCNc2nc(C)nc3sc(C)cc23)ccc1O [Compound 31, 4-(2-(2,6-dimethylthieno[2,3-d]pyrimidin-4-ylamino)ethyl)-2-methoxyphenol]
85 °C | COc1ccc(CCNc2nc(C)nc3sc(C)cc23)cc1OC [Compound 33, N-(3,4-dimethoxyphenethyl)-2,6-dimethylthieno[2,3-d]pyrimidin-4-amine]

melting point | SMILES
105 °C | CCc1nc(NCCc2ccc(OC)c(OC)c2)c2cc(C)sc2n1 [Compound 34, N-(3,4-dimethoxyphenethyl)-2-ethyl-6-methylthieno[2,3-d]pyrimidin-4-amine]
106 to 107 °C | COc1cc(CCNc2nc(C)nc3sc(C)cc23)cc(OC)c1 [Compound 35, N-(3,5-dimethoxyphenethyl)-2,6-dimethylthieno[2,3-d]pyrimidin-4-amine]
129 °C | Cc1nc(NCCc2ccc(Cl)cc2)c2cc(C)sc2n1 [Compound 38, N-(4-chlorophenethyl)-2,6-dimethylthieno[2,3-d]pyrimidin-4-amine]
117.2 °C | Cc1nc(NCCc2ccc(F)cc2)c2cc(C)sc2n1 [Compound 41, N-(4-fluorophenethyl)-2,6-dimethylthieno[2,3-d]pyrimidin-4-amine]
176 to 179.5 °C | Cc1nc(NCCc2ccc(S(C)(=O)=O)cc2)c2cc(C)sc2n1 [Compound 44, N-(4-(methylsulfonyl)phenethyl)-2,6-dimethylthieno[2,3-d]pyrimidin-4-amine]
156.5 °C | Cc1nc(NCCOc2ccccc2)c2cc(C)sc2n1 [Compound 47, 2,6-dimethyl-N-(2-phenoxyethyl)thieno[2,3-d]pyrimidin-4-amine]
139 °C | Cc1nc(NCCc2ccccn2)c2cc(C)sc2n1 [Compound 48, 2,6-dimethyl-N-(2-(pyridin-2-yl)ethyl)thieno[2,3-d]pyrimidin-4-amine]
102.5 to 103.7 °C | Cc1nc(NCCc2cccs2)c2cc(C)sc2n1 [Compound 50, 2,6-dimethyl-N-(2-(thiophen-2-yl)ethyl)thieno[2,3-d]pyrimidin-4-amine]
81 °C | COc1ccc(CCN(C)c2nc(C)nc3sc(C)cc23)cc1 [Compound 51, N-(4-methoxyphenethyl)-N,2,6-trimethylthieno[2,3-d]pyrimidin-4-amine]
94 °C | Cc1nc(NCC(C)c2ccccc2)c2cc(C)sc2n1 (stereo not drawn) [Compound 52, 2,6-dimethyl-N-(2-phenylpropyl)thieno[2,3-d]pyrimidin-4-amine]
117 °C | Cc1nc(NCC(O)c2ccccc2)c2cc(C)sc2n1 (stereo not drawn) [Compound 53, 2-(2,6-dimethylthieno[2,3-d]pyrimidin-4-ylamino)-1-phenylethanol]
108 °C | Cc1nc(NCCCCc2ccccc2)c2cc(C)sc2n1 [Compound 54, 2,6-dimethyl-N-(4-phenylbutyl)thieno[2,3-d]pyrimidin-4-amine]
122 °C | COc1cccc(CCCNc2nc(C)nc3sc(C)cc23)c1 [Compound 55, N-(3-(3-methoxyphenyl)propyl)-2,6-dimethylthieno[2,3-d]pyrimidin-4-amine]
120 °C | COc1ccc(CCCNc2nc(C)nc3sc(C)cc23)cc1 [Compound 56, N-(3-(4-methoxyphenyl)propyl)-2,6-dimethylthieno[2,3-d]pyrimidin-4-amine]
90 °C | COCCCNc1nc(C)nc2sc(C)cc12 [Compound 57, N-(3-methoxypropyl)-2,6-dimethylthieno[2,3-d]pyrimidin-4-amine]
107 °C | COc1cccc(CNc2nc(C)nc3sc(Cc4ccccc4)cc23)c1 [Compound 60, N-(3-methoxybenzyl)-6-benzyl-2-methylthieno[2,3-d]pyrimidin-4-amine]
157 °C | CN(C)C(=O)c1cc2c(NCCc3ccccc3)ncnc2s1 [Compound 62, N,N-dimethyl-4-(phenethylamino)thieno[2,3-d]pyrimidine-6-carboxamide]
133 °C | CCc1cc2c(NCc3ccccc3)ncnc2s1 [Compound 64, N-benzyl-6-ethylthieno[2,3-d]pyrimidin-4-amine]
99 °C | CCc1cc2c(NCc3cccc(OC)c3)ncnc2s1 [Compound 65, N-(3-methoxybenzyl)-6-ethylthieno[2,3-d]pyrimidin-4-amine]
104 °C | CCc1cc2c(NCc3ccc(F)cc3)ncnc2s1 [Compound 66, N-(4-fluorobenzyl)-6-ethylthieno[2,3-d]pyrimidin-4-amine]
118 °C | CCc1cc2c(NCCc3ccccc3)ncnc2s1 [Compound 68, 6-ethyl-N-phenethylthieno[2,3-d]pyrimidin-4-amine]
81 °C | CCc1cc2c(NCCc3cccc(OC)c3)ncnc2s1 [Compound 69, N-(3-methoxyphenethyl)-6-ethylthieno[2,3-d]pyrimidin-4-amine]
133 °C | CCc1cc2c(NCCc3ccc(OC)cc3)ncnc2s1 [Compound 70, N-(4-methoxyphenethyl)-6-ethylthieno[2,3-d]pyrimidin-4-amine]
102 °C | CCc1cc2c(NCCc3ccc(OC)cc3)nc(C)nc2s1 [Compound 71, N-(4-methoxyphenethyl)-6-ethyl-2-methylthieno[2,3-d]pyrimidin-4-amine]
124 °C | CCc1cc2c(NCCc3ccc(OC)c(OC)c3)ncnc2s1 [Compound 72, N-(3,4-dimethoxyphenethyl)-6-ethylthieno[2,3-d]pyrimidin-4-amine]
